This is an account of results in PMC10658920 (The Journal of Pharmacology and Experimental Therapeutics, 2023).

SMILES strings stand for the structures. “And” between values parts separate entries of the source, which are not always exact repeats. Equal values may be shown once. “Also recorded” adds a separate entry of the source. Read-outs that look alike come from different tables or passages of the source.

Series [1] in a line: Clinical pharmacokinetic study, plasma and urine, noncompartmental analysis. The note with it: for tmax: median [range].
The test system of series [2] is CYP3A. The note with it: cited from earlier work.
The conditions of series [3]: Baseline: oral midazolam 2.5 mg alone; median [range]; ref Nguyen et al., 2021; cited from earlier work.
The nature of series [4]: Apparent permeability, apical to basolateral, Caco-2 cell monolayers. The note with it: human. It is filed as in vitro ADME. For orientation: Caco-2 monolayers are a common model of the intestinal barrier.
Series [5] deals with CYP3A. The note with it: HLMs, 2020, cited from earlier work.
Series [6] in a line: Dissolution of goldenseal capsules in FaSSIF. The note with it: two goldenseal capsules in 250 ml FaSSIF, within 20 minutes. Type of series: physicochemical.
For series [7], the system named is CYP3A. Kind of series: IC50 shift experiment, midazolam 1’-hydroxylation in human intestinal microsomes.
A short description of the next series: clinical. The note with it: both, human, in vivo, AUC0–12.5h, Observed.
In series [8] the test system is CYP3A. Kind of series: Allosterism of midazolam hydroxylation in HIMs by berberine. The note with it: for effect on 1’-hydroxymidazolam formation: reversible design.
The conditions of series [9]: both, human, in vivo.
The test system of series [10] is CYP3A. The series is described as follows: Time-dependent inhibition of midazolam 1’-hydroxylation in HIMs. The note with it: HIMs.
Assay in series [11]: as above
The note with it: microsomal incubation mixture, 37 °C, aqueous buffer, kinetic from dmso stock.

[12] abbreviates: 6-hour blood collection, ref Gurley et al., 2008.
[13] abbreviates: Baseline: oral midazolam 2.5 mg alone, geometric mean [90% CI].

The compound `Cc1ncc2n1-c1ccc(Cl)cc1C(c1ccccc1F)=NC2` [Midazolam] gave a CL renal in series [1] (both, human, plasma and urine, po) of 1.08 mL/min. In the series on CYP3A [2] (setting [12]), the “midazolam half-life at baseline” value was 2.0 h and the “midazolam half-life in the presence of goldenseal” value is 3.1 h. Also, in series [3], the tmax was 0.67 [0.33–1.00] h.

As usually defined, the Cmax is the peak of the concentration-time curve. Consider `OCc1ncc2n1-c1ccc(Cl)cc1C(c1ccccc1F)=NC2` [1’-Hydroxymidazolam, 1’-hydroxymidazolam], for which, in [1] (setting [13]), the “AUC0–12h” value was 29.0 [24.4–34.4] nM*h, the AUCinf is 33.1 [27.9–39.0] nM*h, the CLR was 0.17 [0.14–0.20] n = 15 l/h and the concentration peaked (Cmax) at 12.3 nM. In series [1] (setting [13]), the “MP ratio (metabolite AUC0–12h to midazolam AUC0–12h)” value is 0.47 [0.40–0.54] and the t1/2 is 6.25 [5.27–7.40] h. Further, the tmax in series [1] (Baseline: oral midazolam 2.5 mg alone) is 0.67 [0.33–1.00] h. For the same compound, in series [1] (Chronic exposure: goldenseal 1 g thrice daily for 6 days, midazolam 2.5 mg oral), the tmax is 0.67 [0.33–1.50] h.

As a reminder, the AUC(0-t) is the area under the concentration-time curve up to a stated or last time point. What is called half-life is the time in which the quantity being followed falls by half. High values mean slow decline, low ones rapid decline. As to `Cc1ncc2n1-c1ccc(Cl)cc1C(c1ccccc1F)=NC2O` (centres unmarked) [4-Hydroxymidazolam, 4-hydroxymidazolam], in [1] (setting [13]), the CLR result is given as “Concentrations of metabolites in urine were below the detectable limit” and the “MP ratio (metabolite AUC0–12h to midazolam AUC0–12h)” value is 0.045 [0.039–0.051]. Moreover, the AUC(0-t) in series [1] (both, human, plasma, po, 2.5 mg, AUC0–12h, Baseline: oral midazolam 2.5 mg alone, geometric mean [90% CI]) is 2.78 nM·h. Moreover, the half-life in series [1] (both, human, plasma, po, 2.5 mg, t1/2, Baseline: oral midazolam 2.5 mg alone, geometric mean [90% CI]) was 101 min. Further, the tmax in series [1] (both, human, plasma, po, 2.5 mg, tmax, Baseline: oral midazolam 2.5 mg alone) is 1 h. In [1] (both, human, plasma, po, tmax, Chronic exposure: goldenseal 1 g thrice daily for 6 days, midazolam 2.5 mg oral), this compound registered a tmax of 1 h.

A word on the Papp: it is a coefficient for how fast a substance crosses the barrier. As a reminder, the AUC(0-inf) is total exposure, with the tail of the curve extrapolated. A word on the kinact/KI: it is the second-order rate constant of inactivation. For orientation: kinact means the rate constant of inactivation at saturating inhibitor. In general, solubility refers to the dissolved amount per volume that the medium holds. As for `COc1ccc2cc3[n+](cc2c1OC)CCc1cc2c(cc1-3)OCO2` [berberine], the Papp at 10 μM in [4] turned out to be 0.18 ×10⁻⁶ cm/s. In addition, the AUC(0-inf) in series [1] (both, human, plasma, oral) was 0.0467 µM·h. Moreover, in the series with CYP3A [5] (ref Chatterjee and Franklin, 2003, McDonald et al.), the “TDI of CYP3A activity (midazolam 1’-hydroxylation), in words” value is on record as “demonstrated TDI”. The “IC50 (reversible inhibition)” value in the series on CYP3A [5] (ref McDonald et al.) is given as “unattainable”. The kinact/KI in the series with CYP3A [5] (ref McDonald et al.) is 1.3 mL/min/µmol; in the series with CYP3A [10], 0.244 mL/min/µmol and ~0.24 mL/min/µmol. For the same compound, in [6], the total content dissolved entry is listed as “More than 80%”. Also, in the series on CYP3A [2] (berberine 300 mg thrice daily × 14 days, ref Guo et al., 2012), the “increase in midazolam AUC” value is listed as 40%. Also, in the series on CYP3A [7] (HIMs), the “leftward shift in IC50 after preincubation with NADPH” value is on record as “not observed”. Further, the “IC50, midazolam 1’-hydroxylation” value in the series with CYP3A [7] (HIMs 0.05 mg/ml, 30 min preincubation in absence of NADPH, 4 μM midazolam) is listed as “apparent activation; also recorded: unattainable”. The AUC(0-t) in the series “clinical” came out at 4.58 nM·h. In addition, the “effect on midazolam 4-hydroxylation” value in the series on CYP3A [8] (berberine 5–100 μM) is given as “inhibited”. In addition, in the series with CYP3A [8] (particularly at midazolam ≤5 μM), the “effect on 1’-hydroxymidazolam/4-hydroxymidazolam ratio” value is on record as “concentration-dependent increase”. For the same compound, the “effect on 1’-hydroxymidazolam formation” value in the series on CYP3A [8] (midazolam ≤5 μM) is given as “activated”; in the series on CYP3A [8] (midazolam ≥50 μM) it was “inhibited”. Also, the “AUC0–12.5h, Observed” value in [9] was 7.81 [6.17–9.89] nM*h. In the series on CYP3A [10], the “inhibition of midazolam 1’-hydroxylation (in words)” value was “concentration-dependent and time-dependent inhibition”. For the same compound, the KI on CYP3A [10] (time-dependent inhibition of midazolam 1’-hydroxylation) is > 250 µM and 250 µM. In addition, the kinact in the series on CYP3A [10] (human, human intestinal microsomes, probe midazolam (40 μM), 1'-hydroxylation, kinact, time-dependent inhibition of midazolam 1’-hydroxylation) was ~0.001 s⁻¹. In series [11], the solubility is ≤ 500 µM.
